Measurements as given in patent US11000033B2, “Ketone or oxime compound, and herbicide” (NISSAN CHEMICAL CORPORATION, priority 2014, dated 2021).

Columns and labels:
Format in all cases: in vivo
Scirpus juncoides [1] = test: Test Example 1: herbicidal activity, application before weed generation in submerged conditions (symbol B); settings: application herbicide amount 320 g/ha
Outline: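 Greenhouse growth at 25–30 °C lasted 3 weeks after treatment, when each weed was graded 0–5 by herbicidal ratio. Treatment was a diluted emulsion applied to the water surface of 4 cm-submerged alluvial soil on the sowing day.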

Scirpus juncoides [2] = test: Test Example 2: herbicidal activity, application during weed generation in submerged conditions (symbol B); settings: Table 23; application herbicide amount 320 g/ha; grade 0-5 by criteria of Test Example 1
Outline: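 Read-out: herbicidal effect on each species rated on a visual scale 3 weeks after treatment. Plants were raised together from seed in flooded alluvial soil (4 cm water) at 25° C. to 30° C. and treated at one to two leaves by water-surface application of diluted emulsion.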

[3] = test system: Echinochloa crus-galli var. crus-galli; test: Test Example 4: herbicidal effect by soil treatment (symbol H); settings: application herbicide amount 320 g/ha
Outline: (§1)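 Seeds were sown in sterilized diluvial soil, covered with about 1.5 cm of soil, and the soil surface was sprayed with a water-diluted emulsion of the compound at a predetermined rate. Plants grew in a greenhouse at 25° C. to 30° C.; effects were scored visually 3 weeks after application.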

Avena fatua [4] = test: Test Example 4: herbicidal effect by soil treatment (symbol I); settings: application herbicide amount 320 g/ha
Outline: as §1

Apera spica-venti [5] = test: Test Example 4: herbicidal effect by soil treatment (symbol L); settings: application herbicide amount 320 g/ha
Outline: as §1

Amaranthus retroflexus = test: Test Example 4: herbicidal effect by soil treatment (symbol N); settings: application herbicide amount 320 g/ha
Outline: as §1

wheat = test: Test Example 4: effect on crop by soil treatment (symbol e); settings: application herbicide amount 320 g/ha
Outline: (§2)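 Soil-treatment setup: crop and weed seeds were spot-sown into sterilized diluvial soil, then buried beneath approximately 1.5 cm of it, and the boxes were housed in a 25–30° C. greenhouse.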

beet [6] = test: Test Example 4: effect on crop by soil treatment (symbol f); settings: application herbicide amount 320 g/ha
Outline: as §2

rapeseed = test: Test Example 4: effect on crop by soil treatment (symbol g); settings: application herbicide amount 320 g/ha
Outline: as §2

Setaria viridis = test: Test Example 5: herbicidal effect by foliage application, plastic box (symbol G); settings: 320 g/ha, 3 weeks after application
Outline: (§3)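 Post-emergence spray; diluvial soil (sterilized), ~1.5 cm seed cover; greenhouse 25–30° C; 14-day-old plants; water-diluted emulsion at predetermined dose; visual score at 3 wk post-treatment.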

Avena fatua [7] = test: Test Example 5: herbicidal effect by foliage application, plastic box (symbol I); settings: 320 g/ha, 3 weeks after application
Outline: as §3

Apera spica-venti [8] = test: Test Example 5: herbicidal effect by foliage application, plastic box (symbol L); settings: 320 g/ha, 3 weeks after application
Outline: as §3

Chenopodium album = test: Test Example 5: herbicidal effect by foliage application, plastic box (symbol O); settings: 320 g/ha, 3 weeks after application
Outline: as §3

Veronica persica = test: Test Example 5: herbicidal effect by foliage application, plastic box (symbol R); settings: 320 g/ha, 3 weeks after application
Outline: as §3

soybean = test: Test Example 5: effect on crop by foliage application, plastic box (symbol d); settings: 320 g/ha, 3 weeks after application
Outline: (§4)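 Greenhouse culture at 25° C. to 30° C. followed spot-like sowing into sterilized diluvial soil, with seed covered by roughly 1.5 cm of soil.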

beet [9] = test: Test Example 5: effect on crop by foliage application, plastic box (symbol f); settings: 320 g/ha, 3 weeks after application
Outline: as §4

SMILES | Herbicidal effect grade, B: Scirpus juncoides (Scirpus juncoides [1]) | Herbicidal effect grade, B: Scirpus juncoides (Scirpus juncoides [2]) | H (Echinochloa crus-galli var. crus-galli) herbicidal effect grade [3] | I (Avena fatua) herbicidal effect grade (Avena fatua [4]) | L (Apera spica-venti) herbicidal effect grade (Apera spica-venti [5]) | N (Amaranthus retroflexus) herbicidal effect grade (Amaranthus retroflexus) | e (wheat) effect on crop grade (wheat) | f (beet) effect on crop grade (beet [6]) | g (rapeseed) effect on crop grade (rapeseed) | G: Setaria viridis, herbicidal effect grade (Setaria viridis) | I: Avena fatua, herbicidal effect grade (Avena fatua [7]) | L: Apera spica-venti, herbicidal effect grade (Apera spica-venti [8]) | O: Chenopodium album, herbicidal effect grade (Chenopodium album) | G: Setaria viridis, herbicidal effect (criteria of Test Example 1) (Setaria viridis) | I: Avena fatua, herbicidal effect (criteria of Test Example 1) (Avena fatua [7]) | L: Apera spica-venti, herbicidal effect (criteria of Test Example 1) (Apera spica-venti [8]) | O: Chenopodium album, herbicidal effect (criteria of Test Example 1) (Chenopodium album) | R: Veronica persica, herbicidal effect (criteria of Test Example 1) (Veronica persica) | d: soybean, effect on crop (criteria of Test Example 1) (soybean) | f: beet, effect on crop (criteria of Test Example 1) (beet [9]) | other results
CON=C(C)CC1CC(OC(=O)C(C)(C)CCl)=C(c2c(C)cc(C)cc2C)C1=O (stereo not shown) [1-016] | 5 (Herbicidal ratio of 90% or more (almost completely withered)) | 4 (Herbicidal ratio of 70% or higher and lower than 90%) | 5 (Herbicidal ratio of 90% or more (almost completely withered)) | 5 (Herbicidal ratio of 90% or more (almost completely withered)) | 5 (Herbicidal ratio of 90% or more (almost completely withered)) | 5 (Herbicidal ratio of 90% or more (almost completely withered)) | 2 (Herbicidal ratio of 20% or higher and lower than 40%) | 0 (Herbicidal ratio of 5% or lower (almost no effect)) | 4 (Herbicidal ratio of 70% or higher and lower than 90%) | 5 (Herbicidal ratio of 90% or more (almost completely withered)) | 5 (Herbicidal ratio of 90% or more (almost completely withered)) | 5 (Herbicidal ratio of 90% or more (almost completely withered)) | 2 (Herbicidal ratio of 20% or higher and lower than 40%) |  |  |  |  |  |  |  | R: Veronica persica, herbicidal effect grade (Veronica persica): 4 (Herbicidal ratio of 70% or higher and lower than 90%); d: soybean, effect on crop grade (soybean): 4 (Herbicidal ratio of 70% or higher and lower than 90%); f: beet, effect on crop grade (beet [9]): 3 (Herbicidal ratio of 40% or higher and lower than 70%)
CON=C(C)CC1CC(OC(=O)C(C)(C)Oc2ccccc2)=C(c2c(C)cc(C)cc2C)C1=O (stereo not shown) [1-017] | 5 (Herbicidal ratio of 90% or more (almost completely withered)) | 4 (Herbicidal ratio of 70% or higher and lower than 90%) | 5 (Herbicidal ratio of 90% or more (almost completely withered)) | 5 (Herbicidal ratio of 90% or more (almost completely withered)) | 5 (Herbicidal ratio of 90% or more (almost completely withered)) | 5 (Herbicidal ratio of 90% or more (almost completely withered)) | 2 (Herbicidal ratio of 20% or higher and lower than 40%) | 0 (Herbicidal ratio of 5% or lower (almost no effect)) | 4 (Herbicidal ratio of 70% or higher and lower than 90%) | 5 (Herbicidal ratio of 90% or more (almost completely withered)) | 5 (Herbicidal ratio of 90% or more (almost completely withered)) | 5 (Herbicidal ratio of 90% or more (almost completely withered)) | 2 (Herbicidal ratio of 20% or higher and lower than 40%) |  |  |  |  |  |  |  | R: Veronica persica, herbicidal effect grade (Veronica persica): 3 (Herbicidal ratio of 40% or higher and lower than 70%); d: soybean, effect on crop grade (soybean): 4 (Herbicidal ratio of 70% or higher and lower than 90%); f: beet, effect on crop grade (beet [9]): 2 (Herbicidal ratio of 20% or higher and lower than 40%)
CON=C(C)CC1CC(OC(=O)N2CCOCC2)=C(c2c(C)cc(-c3ccc(Cl)cc3)cc2OC)C1=O (stereo not shown) [6-078, 2-(4′-chloro-3-methoxy-5-methyl-[1,1′-biphenyl]-4-yl)-4-{2-(methoxyimino)propyl}-3-oxocyclopent-1-ene-1-yl morpholine-4-carboxylate] | 5 (Herbicidal ratio of 90% or more (almost completely withered)) | 2 (Herbicidal ratio of 20% or higher and lower than 40%) |  |  |  |  |  |  |  |  |  |  |  | 5 (Herbicidal ratio of 90% or more (almost completely withered)) | 5 (Herbicidal ratio of 90% or more (almost completely withered)) | 5 (Herbicidal ratio of 90% or more (almost completely withered)) | 1 (Herbicidal ratio of 5% or higher and lower than 20%) | 3 (Herbicidal ratio of 40% or higher and lower than 70%) | 0 (Herbicidal ratio of 5% or lower (almost no effect)) | 0 (Herbicidal ratio of 5% or lower (almost no effect)) | H: Echinochloa crus-galli var. crus-galli, herbicidal effect grade [3]: 0 (Herbicidal ratio of 5% or lower (almost no effect)); I: Avena fatua, herbicidal effect grade (Avena fatua [4]): 3 (Herbicidal ratio of 40% or higher and lower than 70%); L: Apera spica-venti, herbicidal effect grade (Apera spica-venti [5]): 3 (Herbicidal ratio of 40% or higher and lower than 70%); N: Amaranthus retroflexus, herbicidal effect grade (Amaranthus retroflexus): 0 (Herbicidal ratio of 5% or lower (almost no effect)); e: wheat, effect on crop grade (wheat): 0 (Herbicidal ratio of 5% or lower (almost no effect)); f: beet, effect on crop grade (beet [6]): 0 (Herbicidal ratio of 5% or lower (almost no effect)); g: rapeseed, effect on crop grade (rapeseed): 0 (Herbicidal ratio of 5% or lower (almost no effect))
CON=C(C)CC1CC(OC(=O)C(C)CSC)=C(c2c(C)cc(-c3ccc(Cl)cc3)cc2C)C1=O (stereo not shown) [6-086] | 2 (Herbicidal ratio of 20% or higher and lower than 40%) | 4 (Herbicidal ratio of 70% or higher and lower than 90%) |  |  |  |  |  |  |  |  |  |  |  | 5 (Herbicidal ratio of 90% or more (almost completely withered)) | 5 (Herbicidal ratio of 90% or more (almost completely withered)) | 5 (Herbicidal ratio of 90% or more (almost completely withered)) | 5 (Herbicidal ratio of 90% or more (almost completely withered)) | 5 (Herbicidal ratio of 90% or more (almost completely withered)) | 5 (Herbicidal ratio of 90% or more (almost completely withered)) | 3 (Herbicidal ratio of 40% or higher and lower than 70%) | Herbicidal effect grade, H: Echinochloa crus-galli var. crus-galli [3]: 5 (Herbicidal ratio of 90% or more (almost completely withered)); Herbicidal effect grade, I: Avena fatua (Avena fatua [4]): 4 (Herbicidal ratio of 70% or higher and lower than 90%); Herbicidal effect grade, N: Amaranthus retroflexus (Amaranthus retroflexus): 3 (Herbicidal ratio of 40% or higher and lower than 70%); Effect on crop grade, e: wheat (wheat): 2 (Herbicidal ratio of 20% or higher and lower than 40%); Effect on crop grade, f: beet (beet [6]): 1 (Herbicidal ratio of 5% or higher and lower than 20%); Effect on crop grade, g: rapeseed (rapeseed): 4 (Herbicidal ratio of 70% or higher and lower than 90%)
CC(=O)CC1CC(O)=C(c2c(C)cc(-c3ccc(Cl)cc3)cc2C)C1=O (stereo not shown) [7-008] | 2 (Herbicidal ratio of 20% or higher and lower than 40%) | 0 (Herbicidal ratio of 5% or lower (almost no effect)) |  |  |  |  |  |  |  |  |  |  |  | 5 (Herbicidal ratio of 90% or more (almost completely withered)) | 5 (Herbicidal ratio of 90% or more (almost completely withered)) | 5 (Herbicidal ratio of 90% or more (almost completely withered)) | 2 (Herbicidal ratio of 20% or higher and lower than 40%) | 3 (Herbicidal ratio of 40% or higher and lower than 70%) | 0 (Herbicidal ratio of 5% or lower (almost no effect)) | 0 (Herbicidal ratio of 5% or lower (almost no effect)) | Herbicidal effect grade, H: Echinochloa crus-galli var. crus-galli [3]: 5 (Herbicidal ratio of 90% or more (almost completely withered)); Herbicidal effect grade, I: Avena fatua (Avena fatua [4]): 3 (Herbicidal ratio of 40% or higher and lower than 70%); Herbicidal effect grade, L: Apera spica-venti (Apera spica-venti [5]): 5 (Herbicidal ratio of 90% or more (almost completely withered)); Herbicidal effect grade, N: Amaranthus retroflexus (Amaranthus retroflexus): 0 (Herbicidal ratio of 5% or lower (almost no effect)); Effect on crop grade, e: wheat (wheat): 1 (Herbicidal ratio of 5% or higher and lower than 20%); Effect on crop grade, f: beet (beet [6]): 0 (Herbicidal ratio of 5% or lower (almost no effect)); Effect on crop grade, g: rapeseed (rapeseed): 0 (Herbicidal ratio of 5% or lower (almost no effect))
